The test system of this assay is C. albicans SC5314. The assay can be described thus: Surface adhesion of C. albicans with simultaneous LreLTA and Hsp70 inhibitor VER-155008, crystal violet staining. The class given is cell-based, Candida albicans. The following applies: SC5314 1×10^4 CFU/mL; LreLTA 30 μg/mL plus VER-155008 1, 10, 50 and 100 μM simultaneously; 24 hours; FIG. 4. The method, then:
According to previous research, Hsp70 is known to play a role in controlling overall virulence factors and drug resistance in C. albicans, and thus, the inventors of the present disclosure conducted experiments by utilizing VER-155008, which is an Hsp70 inhibitor.
In order to determine the effect of VER-155008 on reducing C. albicans surface adhesion by LreLTA, C. albicans SC5314 strain was cultured in YPD medium and prepared at 1×10^4 CFU/mL, and LreLTA at a single concentration of 30 μg/mL and VER-155008 at concentrations of 1, 10, 50 and 100 μM were simultaneously treated. After culturing for 24 hours, the degree of adhesion maintenance to the surface was compared by 0.1% crystal violet staining.

Structures are written as SMILES.

As for `N#Cc1ccc(COC[C@H]2O[C@@H](n3c(NCc4ccc(Cl)c(Cl)c4)nc4c(N)ncnc43)[C@H](O)[C@@H]2O)cc1` [VER-155008], the “effect on the surface adhesion reducing efficacy of LreLTA” value is reported as “the efficacy of reducing the surface adhesion of LreLTA was decreased”.

The values are drawn from US20250295681A1, “CANDIDA ANTIFUNGAL COMPOSITION COMPRISING LIPOTEICHOIC ACID” (SEOUL NATIONAL UNIVERSITY R&DB FOUNDATION, priority 2022, published 2025).
